From patent US11338009B2 (The Children's Hospital of Philadelphia, priority 2017, dated 2022)
Like-named read-outs stand apart in the source and are kept apart here.

Key:
[1] = target: T1, hCC L68Q variant (Homo sapiens, UniProt P01034, L94Q); test: Incubation of supernatants and cellular extracts of hCC-expressing HEK-293T cells with reducing agents, non-reducing SDS-PAGE/Western blot for cystatin C; type: biochemical; conditions: for concentration at which equivalent loss of high molecular signal was observed: supernatants or cell extracts treated in vitro (FIG. 6); for ability to disrupt high molecular weight complexes of L68Q Cyst-C: supernatants or cell extracts treated in vitro, 1 h at 37 C (FIG. 6); for oligomerization of hCC WT and L68Q variant in presence of reducing agent: DTT 50 mM or β-mercaptoethanol 5% in sample buffer, lysates and supernatants; for inhibition at 3000 µM / HMW of secreted hCC L68Q (quantitation): 3 mM; for HMW of secreted hCC L68Q (quantitation) / oligomerization/dimerization levels of secreted hCC L68Q variant in vitro: supernatants, 37° C. for 60 min; for high molecular weight complexes of L68Q Cyst-C: supernatants and cell extracts, 1 h at 37° C. (FIG. 5)
T1 construct: Dashed line represents the N-terminal signal peptide subject to proteolysis; expressed in transfected cells
T1 sequence (P01034 27-146 L94Q): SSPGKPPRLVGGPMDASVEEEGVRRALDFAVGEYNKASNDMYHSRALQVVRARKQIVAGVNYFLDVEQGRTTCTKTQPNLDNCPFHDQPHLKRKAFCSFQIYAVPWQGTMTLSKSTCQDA
Method: A plasmid containing a cDNA of CST3 was obtained from Dharmacon (Lafayette, Colo.). The full length coding sequence was amplified with a c-terminal Myc tag by PCR using the forward primer […] All sequences were confirmed by Sanger sequencing. […] After transfection cells were incubated with fresh medium containing puromycin (1 μg/ml) for 3 weeks. After selection, stable clones of each transfectant were generated by limiting dilution.
After clearing the cell lysates by centrifugation (10 minutes, 21,000×g, 4° C.), the supernatants were collected and used for Western blotting. Sample buffer containing SDS, glycerol, Tris-HCl pH 6.8, and bromophenol blue was added to each sample to the following final concentrations: 2% SDS, 10% glycerol, 50 mM Tris-HCl, 0.02% bromophenol blue. In samples that were reduced, either DTT (50 mM final concentration) or β-mercaptoethanol (5% final concentration) were added. […] Proteins were transferred to PVDF membranes (Millipore, Billerica, Mass.) and blotted with anti-hCystatin C, and developed by enhanced chemiluminescence (ECL; Thermo Fisher Scientific). ECL films were scanned, and densities of bands were determined using the gel analysis features of Fiji.^59
(§1) The means and standard deviations of data were calculated. One-sided T-test tests were used to determine the level of significance with respect to the untreated samples, with p<0.05 being considered statistically significant.

[2] = target: T2, secreted hCC L68Q (Homo sapiens, UniProt P01034, L94Q); test: Treatment of live HEK-293T cells expressing hCC WT or L68Q with compounds, Western blot of supernatants or lysates; type: cell-based; conditions: for presence of HMW and LMW of secreted hCC L68Q / reduction of HMW and LMW of secreted hCC L68Q: 10 mM; for presence of HMW and LMW of secreted hCC L68Q: 24 h and 48 h time points; for reduction of HMW and LMW of secreted hCC L68Q: 72 h; for effect on oligomerization of secreted hCC L68Q: lower doses (below 10 mM)
T2 construct: Dashed line represents the N-terminal signal peptide subject to proteolysis; expressed in transfected cells
T2 sequence (P01034 27-146 L94Q): T1 sequence (P01034 27-146 L94Q)
Method: HEK-293T cells expressing hCC WT or the L68Q variant were washed twice with ice-cold phosphate-buffered saline (PBS) and lysed on ice using a freshly prepared ice-cold cell lysis buffer containing 50 mM Tris-HCl, pH 7.4, 100 mM NaCl, 50 mM β-glycerophosphate, 10% glycerol (w/v), 1% NP-40 (w/v), 1 mM EDTA, 2 mM NaVO4, and a complete, EDTA-free, protein inhibitor cocktail (Roche Applied Science, Mannheim Germany) at 20 μl per mL of lysis buffer. After clearing the cell lysates by centrifugation (10 minutes, 21,000×g, 4° C.), the supernatants were collected and used for Western blotting. Sample buffer containing SDS, glycerol, Tris-HCl pH 6.8, and bromophenol blue was added to each sample to the following final concentrations: 2% SDS, 10% glycerol, 50 mM Tris-HCl, 0.02% bromophenol blue. In samples that were reduced, either DTT (50 mM final concentration) or β-mercaptoethanol (5% final concentration) were added. Equal volumes of lysate or supernatant samples were loaded on NuPAGE 4-12% Bis-Tris gels (Thermo Fisher Scientific, Waltham Mass.) without heating/boiling. Proteins were transferred to PVDF membranes (Millipore, Billerica, Mass.) and blotted with anti-hCystatin C, and developed by enhanced chemiluminescence (ECL; Thermo Fisher Scientific). ECL films were scanned, and densities of bands were determined using the gel analysis features of Fiji.^59
(§2) HEK-239T cells were plated on 6-well plates and cultured for 2 days, at which point reduced glutathione (GSH) (Sigma, St. Louis, Mo.) or N-acetylcystein (NAC) (Sigma) were added to the indicated concentrations. Cells were incubated with compounds for 72 hours, and 100 μl samples of supernatants were removed at 24, 48, and 72 hours. Supernatants were cleared by centrifugation (10 minutes, 21,000×g, 4° C.). Sample buffer containing SDS, glycerol, Tris-HCl pH 6.8, and bromophenol blue was added to each sample to the following final concentrations: 2% SDS, 10% glycerol, 50 mM Tris-HCl, 0.02% bromophenol blue. When indicated, cells were washed with PBS and lysed and cystatin C levels were determined by means of Western blot analysis.
as §1

[3] = tested on: HEK-293T cells; test: Viability and proliferation of hCC-expressing HEK-293T cells in the presence of reducing agents; type: cell-based, human
Method: as §2

[4] = target: T3, amyloid-cystatin protein complex aggregates in the skin (Homo sapiens, UniProt P01034, L94Q); test: Cystatin C immunostaining of skin biopsies from HCCAA patients (hCC L68Q carriers) on NAC therapy; type: in vivo
T3 construct: from tissue; host or cells: human skin biopsies from HCCAA patients
T3 sequence (P01034 27-146 L94Q): T1 sequence (P01034 27-146 L94Q)
Text: Three 4 mm skin biopsies from the back were taken from each of the three studied individuals. The skin biopsies were formalin-fixed and paraffin-embedded. They were cut into 3 μm sections for immunohistochemistry and immunostained with rabbit polyclonal cystatin C antibody (Sigma, HPA013143) using the EnVision Detection System as previously described.^22 hCC immunoreactivity in the carriers skin biopsies was quantified by semi-automated image analysis using the ImageJ software as previously described.^22 Bright-field images of each section from the carriers were captured using a ×20/0.3 NA objective. RGB color images of the sections were imported to ImageJ. On each image, a rectangular 2000×2000 pixels region of interest (ROI) was defined. Subsequent processing yielding the % area coverage of hCC immunoreactivity within each ROI was performed as previously described^22. […] The second biopsy was taken immediately prior to the family-wide initiation of NAC treatment (600 mg of NAC 3× per day for 6 months). The third biopsy was taken following 6 months of 600 mg 3× per day of NAC therapy.
The proband received 400 mg NAC 4× per day for 9 months followed by 600 mg 3× per day for 6 months. The parent received only the 600 mg 3× per day for 6 months course. The proband never missed a dose; the parent did miss the middle dose 2-3 times per week.

[5] = human, in vivo
[6] = target: T4, Cyst-C L68Q (Homo sapiens, UniProt P01034, L94Q); test: Incubation of plasma or brain extracts of Cyst-C L68Q transgenic mice with NAC, non-reducing Western blot; type: biochemical; conditions: 1 h at 37° C.
T4 construct: from tissue; host or cells: plasma and brain extracts of Cyst-C L68Q transgenic mice (from Levy, New York University)
T4 sequence (P01034 27-146 L94Q): T1 sequence (P01034 27-146 L94Q)
Method: FIG. 7. High molecular weight complexes of Cyst-C L68Q can be detected in transgenic mice. Short incubation of NAC impairs oligomerization of Cyst-C L68Q on blood and brain extracts. Plasma or brain extracts were incubated in presence of NAC during 1 h at 37° C. with indicated concentrations. Samples were mixed with 2% SDS without reducing agents prior to electrophoresis, and proteins levels were detected by biotinylated anti-cystatin C antibody followed by streptavidin-HRP.
Additional results have been generated from transgenic mice that were obtained from our collaborator Eufrat Levy at New York University. These mice have been transformed with a human genomic DNA which contains the coding sequence of Cyst-C, […] non-coding portions of the gene which may impact expression levels. […] Western blots from the mouse tissue extracts are not as clean as blots from the cell system, as the antibody we use to detect was raised in a mouse. […] Although there are several non-specific high molecular weight bands observed in the non-transgenic samples, a clear high molecular weight “smear” is seen in the transgenic animals, consistent with what we observe in supernatant from the cell culture system.

Molecule: CC(=O)N[C@@H](CS)C(N)=O
- concentration at which equivalent loss of high molecular signal was observed [1]: 1 mM
- ability to disrupt high molecular weight complexes of L68Q Cyst-C [1]: retain the ability to disrupt

Molecule: O[C@@H](CS)[C@@H](O)CS [DTT]
- oligomerization of hCC WT and L68Q variant in presence of reducing agent [1]: completely abolished

Molecule: N[C@@H](CCC(=O)N[C@@H](CS)C(=O)NCC(=O)O)C(=O)O [GSH, glutathione]
- presence of HMW and LMW of secreted hCC L68Q [2]: completely abolished
- reduction of HMW and LMW of secreted hCC L68Q [2]: appreciable but incomplete reduction
- effect on oligomerization of secreted hCC L68Q ([2]; 24 h and 48 h): only incompletely effective
- effect on oligomerization of secreted hCC L68Q ([2]; after 72 h): no significant effect
- inhibition at 3000 µM ([1]; cellular extract, 37° C., read-out: inhibition of the HMW on the intracellular fraction of the L68Q hCC variant (densitometry)): ~50%
- inhibition at 3000 µM ([1]; supernatant, 37° C., read-out: inhibition of the HMW in the secreted fraction of the L68Q hCC variant (densitometry)): ~90%
- HMW of secreted hCC L68Q (quantitation) [1]: almost complete ablation
- amount of dimer and/or HMW oligomer in secreted and intracellular fraction of hCC WT or L68Q variant ([1]; 3 or 10 mM, 37° C.): severely reduced
- oligomerization/dimerization levels of secreted hCC L68Q variant in vitro ([1]; 3 or 10 mM): severely reduces
- high molecular weight complexes of L68Q Cyst-C [1]: significant reduction
- cell viability for the duration of the experiment ([3]; all concentrations (up to 10 mM), 72 hours): viable
- proliferation of the cells ([3]; highest 10 mM concentration (data not shown)): slightly impacted

Molecule: CC(=O)N[C@@H](CS)C(=O)O [NAC, N-acetyl cysteine]
- presence of HMW and LMW of secreted hCC L68Q [2]: completely abolished
- reduction of HMW and LMW of secreted hCC L68Q [2]: appreciable but incomplete reduction
- dimerization status of the intracellular levels of L68Q hCC ([2]; extracellular treatment of cells (data not shown)): does not appear to impact
- effect on oligomerization of secreted hCC L68Q ([2]; 24 h and 48 h): only incompletely effective
- effect on oligomerization of secreted hCC L68Q ([2]; after 72 h): no significant effect
- reduction in staining of skin biopsy ([4]; parent), 600 mg 3× per day for 6 months, middle dose missed 2-3 times per week): 50%
- progression of amyloid-cystatin stain intensity between skin biopsy #1 and #2 ([4]; proband, on NAC for about 9 months, stopped a few months prior to second biopsy): had not progressed in any significant way
- reduction in staining of skin biopsy ([4]; sibling, lower doses of NAC): less obvious
- tolerability of oral therapy [5]: well tolerated and without adverse events
- Cyst-C monomer [6]: causes the appearance of monomer
- high molecular weight smear of transgenic human Cyst-C [6]: reduces this smear
- HMW of secreted hCC L68Q (quantitation) [1]: almost complete ablation
- oligomerization/dimerization levels of secreted hCC L68Q variant in vitro ([1]; 3 or 10 mM): severely reduces
- high molecular weight complexes of L68Q Cyst-C [1]: significant reduction
- concentration at which equivalent loss of high molecular signal was observed [1]: 10 mM

Molecule: COC(=O)[C@H](CS)NC(C)=O [NAC-methyl ester, N-acetylcysteine methyl ester]
- concentration at which equivalent loss of high molecular signal was observed [1]: 1 mM
- ability to disrupt high molecular weight complexes of L68Q Cyst-C [1]: retain the ability to disrupt

Molecule: CC(=O)N[C@@H](CO)C(=O)O [NAS, n-acetyl-serine]
- high molecular weight complexes of L68Q Cyst-C [1]: does not affect

Molecule: OCCS [b-mercaptoethanol]
- oligomerization of hCC WT and L68Q variant in presence of reducing agent [1]: completely abolished

Molecule: GSSH
- high molecular weight complexes of L68Q Cyst-C [1]: does not affect
